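Compound exposure: 48 hours, 5 concentrations, 96-well plates. The concentration for 50% growth inhibition is given as GI50.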 The source made the active and inactive calls. Cut-off read from the data, not from the text of the source: active = GI50 up to about 1.1 µM and inactive = higher.
Columns and labels:
Assay in all cases: NCI tumour cell line growth inhibition, 48 h
[1] = tested on: MDA-N
[2] = tested on: Hs-578T
[3] = tested on: HCC 2998
[4] = tested on: MCF7
[5] = tested on: MOLT-4
[6] = tested on: K562
[7] = tested on: HCT-116
[8] = tested on: IGROV-1
[9] = tested on: OVCAR-3
[10] = tested on: NCI-H460
[11] = tested on: T47D
[12] = tested on: RPMI-8226
[13] = tested on: RXF 393
[14] = tested on: SF-268
[15] = tested on: SK-MEL-28
[16] = tested on: TK-10
[17] = tested on: SN12C
[18] = tested on: OVCAR-5
[19] = tested on: CAKI-1
[20] = tested on: SF-295
[21] = tested on: NCI-H23
[22] = tested on: A498
[23] = tested on: HCT-15
[24] = tested on: M14
[25] = tested on: U-251
[26] = tested on: HOP-62
[27] = tested on: A549
[28] = tested on: UACC-62
[29] = tested on: NCI-H226
[30] = tested on: EKVX
[31] = tested on: Malme-3M
[32] = tested on: SK-OV-3
[33] = tested on: 786-0
[34] = tested on: SK-MEL-5
[35] = tested on: SNB-19
[36] = tested on: COLO 205
[37] = tested on: SNB-75
[38] = tested on: OVCAR-4
[39] = tested on: LOX IMVI
[40] = tested on: PC-3
[41] = tested on: SF-539
[42] = tested on: HL-60
[43] = tested on: SK-MEL-2
[44] = tested on: NCI/ADR-RES
[45] = tested on: MDA-MB-435
[46] = tested on: KM12
[47] = tested on: OVCAR-8
[48] = tested on: CCRF-CEM
[49] = tested on: SW-620
[50] = tested on: UACC-257
[51] = tested on: DU-145
[52] = tested on: UO-31
[53] = tested on: HT-29
[54] = tested on: ACHN
[55] = tested on: MDA-MB-231

`COc1ccc(CC2C3=C(CCCC3)CCN2C)cc1` (stereo not given) was tested, and the GI50 [1] was > 100 µM (inactive), the GI50 [2] was 77.6 µM (inactive) and the GI50 [3] was 45.4 µM (inactive). For the same compound, the GI50 [4] was > 100 µM (inactive), the GI50 [5] was > 100 µM (inactive) and the GI50 [6] was 39 µM (inactive). For the same compound, the GI50 [7] was 58.2 µM (inactive), the GI50 [8] was > 100 µM (inactive) and the GI50 [9] was > 100 µM (inactive). The GI50 [10] was > 100 µM (inactive), the GI50 [11] was 69.2 µM (inactive) and the GI50 [12] was > 100 µM (inactive). The GI50 [13] was > 100 µM (inactive), the GI50 [14] was 43.1 µM (inactive) and the GI50 [15] was > 100 µM (inactive). The GI50 [16] was > 100 µM (inactive), the GI50 [17] was > 100 µM (inactive) and the GI50 [18] was > 100 µM (inactive). For the same compound, the GI50 [19] was > 100 µM (inactive), the GI50 [20] was > 100 µM (inactive) and the GI50 [21] was > 100 µM (inactive). For the same compound, the GI50 [22] was > 100 µM (inactive), the GI50 [23] was greater than 100 µM and the GI50 [24] was 44.4 µM (inactive). The GI50 [25] was > 100 µM (inactive), the GI50 [26] was > 100 µM (inactive) and the GI50 [27] was > 100 µM (inactive). The GI50 [28] was 65.6 µM (inactive), the GI50 [29] was > 100 µM (inactive) and the GI50 [30] was > 100 µM (inactive). For the same compound, the GI50 [31] was > 100 µM (inactive), the GI50 [32] was > 100 µM (inactive) and the GI50 [33] was > 100 µM (inactive). The GI50 [34] was > 100 µM (inactive), the GI50 [35] was > 100 µM (inactive) and the GI50 [36] was > 100 µM (inactive). The GI50 [37] was 55.2 µM (inactive), the GI50 [38] was > 100 µM (inactive) and the GI50 [39] was > 100 µM (inactive). The GI50 [40] was > 100 µM (inactive), the GI50 [41] was > 100 µM (inactive) and the GI50 [42] was 29.4 µM (inactive). The GI50 [43] was > 100 µM (inactive), the GI50 [44] was > 100 µM (inactive) and the GI50 [45] was > 100 µM (inactive). The GI50 [46] was > 100 µM (inactive), the GI50 [47] was > 100 µM (inactive) and the GI50 [48] was > 100 µM (inactive). For the same compound, the GI50 [49] was > 100 µM (inactive), the GI50 [50] was > 100 µM (inactive) and the GI50 [51] was > 100 µM (inactive). The GI50 [52] was 58.3 µM (inactive), the GI50 [53] was 65.8 µM (inactive) and the GI50 [54] was > 100 µM (inactive). The GI50 [55] was > 100 µM (inactive).

From ChEMBL document CHEMBL1201862, “PubChem BioAssay data set” (2004)
